How the values were obtained:
Assay in all cases: KINOMEscan competition binding
Conditions in all cases: compound 10.0 µM
TRPM6 (human) = TRPM6 (human) (UniProt Q9BX84)
PLK2 (human) = PLK2 (human) (UniProt Q9NYY3)
DSTYK (human) = DSTYK (human) (UniProt Q6XUX3)
PIK3C2G (human) = PIK3C2G (human) (UniProt O75747)
PIP5K1C (human) = PIP5K1C (human) (UniProt O60331)
[1] = system: EGFR (human), P00533 [G719S]
GRK4 (human) = GRK4 (human) (UniProt P32298)
TAOK2 (human) = TAOK2 (human) (UniProt Q9UL54)
PIP4K2C (human) = PIP4K2C (human) (UniProt Q8TBX8)
MAP2K5 (human) = MAP2K5 (human) (UniProt Q13163)
CDK13 (human) = CDK13 (human) (UniProt Q14004)
NIM1 (human) = NIM1 (human) (UniProt Q8IY84)
[2] = system: EGFR (human), P00533 [L861Q]
STK39 (human) = STK39 (human) (UniProt Q9UEW8)
STK38 (human) = STK38 (human) (UniProt Q15208)
MET (human) = MET (human) (UniProt P08581)
DDR1 (human) = DDR1 (human) (UniProt Q08345)
PRKCI (human) = PRKCI (human) (UniProt P41743)
PRPF4B (human) = PRPF4B (human) (UniProt Q13523)
CDK4 CCND3 (human) = CDK4 CCND3 (human) (UniProt P11802+P30281)
VRK2 (human) = VRK2 (human) (UniProt Q86Y07)
EGFR (human) = EGFR (human) (UniProt P00533)
HUNK (human) = HUNK (human) (UniProt P57058)
MAP3K6 (human) = MAP3K6 (human) (UniProt O95382)
STK32A (human) = STK32A (human) (UniProt Q8WU08)
CDK4 CCND1 (human) = CDK4 CCND1 (human) (UniProt P11802+P24385)
ICK (human) = ICK (human) (UniProt Q9UPZ9)
DYRK1A (human) = DYRK1A (human) (UniProt Q13627)
IRAK1 (human) = IRAK1 (human) (UniProt P51617)
[3] = system: PIK3CA (human), P42336 [C420R]
CDKL3 (human) = CDKL3 (human) (UniProt Q8IVW4)
BTK (human) = BTK (human) (UniProt Q06187)
PIK3CA (human) = PIK3CA (human) (UniProt P42336)
CPK1 (P.falciparum) = system: CPK1 (P.falciparum)
PKN3 (M.tuberculosis) = PKN3 (M.tuberculosis) (UniProt Q6P5Z2)
IRAK4 (human) = IRAK4 (human) (UniProt Q9NWZ3)
NEK4 (human) = NEK4 (human) (UniProt P51957)
MAK (human) = MAK (human) (UniProt P20794)
SNRK (human) = SNRK (human) (UniProt Q9NRH2)
GRK1 (human) = GRK1 (human) (UniProt Q15835)

PIK3CA (human), sequence (P42336 whole entry, looked up): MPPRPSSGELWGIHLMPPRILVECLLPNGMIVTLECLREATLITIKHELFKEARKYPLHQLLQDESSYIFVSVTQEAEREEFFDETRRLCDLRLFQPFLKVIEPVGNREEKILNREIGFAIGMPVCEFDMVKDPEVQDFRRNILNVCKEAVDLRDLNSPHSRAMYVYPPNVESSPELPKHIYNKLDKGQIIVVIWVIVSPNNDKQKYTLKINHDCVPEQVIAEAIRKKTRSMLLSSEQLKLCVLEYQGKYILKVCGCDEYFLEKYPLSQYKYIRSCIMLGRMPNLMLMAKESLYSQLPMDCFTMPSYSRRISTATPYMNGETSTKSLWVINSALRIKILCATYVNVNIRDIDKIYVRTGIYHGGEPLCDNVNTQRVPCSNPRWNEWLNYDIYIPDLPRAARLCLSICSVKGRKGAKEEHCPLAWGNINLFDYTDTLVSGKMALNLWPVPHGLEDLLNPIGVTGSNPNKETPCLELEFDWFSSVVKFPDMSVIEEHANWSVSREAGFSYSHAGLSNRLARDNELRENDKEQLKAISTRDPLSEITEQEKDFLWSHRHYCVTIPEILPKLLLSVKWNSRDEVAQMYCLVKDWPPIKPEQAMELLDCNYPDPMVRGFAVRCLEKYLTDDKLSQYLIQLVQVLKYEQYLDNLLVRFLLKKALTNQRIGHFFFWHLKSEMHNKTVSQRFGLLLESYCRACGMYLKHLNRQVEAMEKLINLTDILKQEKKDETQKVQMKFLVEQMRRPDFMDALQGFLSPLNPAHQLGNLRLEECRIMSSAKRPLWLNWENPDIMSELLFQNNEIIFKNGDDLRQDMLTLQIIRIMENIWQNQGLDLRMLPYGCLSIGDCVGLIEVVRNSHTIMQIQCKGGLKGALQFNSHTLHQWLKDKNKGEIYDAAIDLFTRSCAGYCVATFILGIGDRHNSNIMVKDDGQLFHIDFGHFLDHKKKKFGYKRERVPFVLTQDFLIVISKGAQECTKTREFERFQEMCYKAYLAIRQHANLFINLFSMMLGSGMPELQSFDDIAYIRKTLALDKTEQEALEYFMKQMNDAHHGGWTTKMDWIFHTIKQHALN
PIK3CA (human), P42336 [C420R], sequence (P42336 whole entry C420R, looked up): as the sequence (P42336 whole entry, looked up) above, with C420R counted along it
VRK2 (human), sequence (Q86Y07 whole entry, looked up): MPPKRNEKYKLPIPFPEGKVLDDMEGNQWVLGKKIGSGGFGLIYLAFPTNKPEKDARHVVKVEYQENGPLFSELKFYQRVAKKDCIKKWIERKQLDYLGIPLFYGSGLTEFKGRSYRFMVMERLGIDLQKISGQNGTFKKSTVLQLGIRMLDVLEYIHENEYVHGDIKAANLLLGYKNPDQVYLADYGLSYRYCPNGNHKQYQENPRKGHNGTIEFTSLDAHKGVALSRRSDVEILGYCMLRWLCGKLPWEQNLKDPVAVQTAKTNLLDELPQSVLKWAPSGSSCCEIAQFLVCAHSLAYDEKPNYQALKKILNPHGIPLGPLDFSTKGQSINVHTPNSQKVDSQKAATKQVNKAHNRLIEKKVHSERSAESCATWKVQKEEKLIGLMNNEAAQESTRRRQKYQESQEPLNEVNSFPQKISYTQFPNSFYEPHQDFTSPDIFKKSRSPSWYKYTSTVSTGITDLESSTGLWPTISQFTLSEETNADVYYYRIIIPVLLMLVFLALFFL
CDKL3 (human), sequence (Q8IVW4 whole entry, looked up): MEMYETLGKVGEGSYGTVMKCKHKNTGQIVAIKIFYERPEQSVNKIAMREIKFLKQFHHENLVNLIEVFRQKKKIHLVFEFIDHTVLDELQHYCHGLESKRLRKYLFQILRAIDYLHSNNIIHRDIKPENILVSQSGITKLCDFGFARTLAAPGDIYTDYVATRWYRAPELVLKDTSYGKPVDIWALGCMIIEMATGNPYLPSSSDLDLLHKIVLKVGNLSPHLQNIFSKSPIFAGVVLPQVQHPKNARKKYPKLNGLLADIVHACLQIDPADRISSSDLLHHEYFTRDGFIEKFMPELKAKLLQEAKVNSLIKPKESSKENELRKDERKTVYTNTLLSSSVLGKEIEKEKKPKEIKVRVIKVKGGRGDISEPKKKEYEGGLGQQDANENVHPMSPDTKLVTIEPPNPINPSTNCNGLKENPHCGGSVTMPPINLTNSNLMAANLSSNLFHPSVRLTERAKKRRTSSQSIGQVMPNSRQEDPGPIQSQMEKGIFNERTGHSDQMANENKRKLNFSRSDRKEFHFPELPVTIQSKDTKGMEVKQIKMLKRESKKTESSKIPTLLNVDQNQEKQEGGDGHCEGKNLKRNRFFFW
SNRK (human), sequence (Q9NRH2 whole entry, looked up): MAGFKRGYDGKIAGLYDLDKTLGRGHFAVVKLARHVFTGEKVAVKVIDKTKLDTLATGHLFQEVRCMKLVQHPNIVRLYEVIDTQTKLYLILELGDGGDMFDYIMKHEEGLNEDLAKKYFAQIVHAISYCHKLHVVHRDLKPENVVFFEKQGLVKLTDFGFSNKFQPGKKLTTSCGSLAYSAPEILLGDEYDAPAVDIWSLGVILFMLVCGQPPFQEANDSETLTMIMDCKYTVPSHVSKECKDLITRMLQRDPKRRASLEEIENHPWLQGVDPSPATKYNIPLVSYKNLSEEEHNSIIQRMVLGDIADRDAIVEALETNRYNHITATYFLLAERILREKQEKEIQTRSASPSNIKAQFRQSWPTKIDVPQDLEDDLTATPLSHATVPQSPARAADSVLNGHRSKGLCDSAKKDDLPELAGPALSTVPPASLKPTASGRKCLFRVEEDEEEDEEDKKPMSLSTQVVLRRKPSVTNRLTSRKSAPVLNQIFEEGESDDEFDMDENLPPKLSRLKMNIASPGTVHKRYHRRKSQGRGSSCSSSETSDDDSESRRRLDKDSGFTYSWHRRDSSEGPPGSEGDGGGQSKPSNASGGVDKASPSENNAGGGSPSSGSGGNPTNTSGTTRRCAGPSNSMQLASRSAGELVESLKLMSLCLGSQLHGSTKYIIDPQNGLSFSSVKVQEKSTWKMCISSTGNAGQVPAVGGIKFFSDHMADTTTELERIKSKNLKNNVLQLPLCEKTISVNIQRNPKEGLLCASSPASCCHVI
CDK13 (human), sequence (Q14004 whole entry, looked up): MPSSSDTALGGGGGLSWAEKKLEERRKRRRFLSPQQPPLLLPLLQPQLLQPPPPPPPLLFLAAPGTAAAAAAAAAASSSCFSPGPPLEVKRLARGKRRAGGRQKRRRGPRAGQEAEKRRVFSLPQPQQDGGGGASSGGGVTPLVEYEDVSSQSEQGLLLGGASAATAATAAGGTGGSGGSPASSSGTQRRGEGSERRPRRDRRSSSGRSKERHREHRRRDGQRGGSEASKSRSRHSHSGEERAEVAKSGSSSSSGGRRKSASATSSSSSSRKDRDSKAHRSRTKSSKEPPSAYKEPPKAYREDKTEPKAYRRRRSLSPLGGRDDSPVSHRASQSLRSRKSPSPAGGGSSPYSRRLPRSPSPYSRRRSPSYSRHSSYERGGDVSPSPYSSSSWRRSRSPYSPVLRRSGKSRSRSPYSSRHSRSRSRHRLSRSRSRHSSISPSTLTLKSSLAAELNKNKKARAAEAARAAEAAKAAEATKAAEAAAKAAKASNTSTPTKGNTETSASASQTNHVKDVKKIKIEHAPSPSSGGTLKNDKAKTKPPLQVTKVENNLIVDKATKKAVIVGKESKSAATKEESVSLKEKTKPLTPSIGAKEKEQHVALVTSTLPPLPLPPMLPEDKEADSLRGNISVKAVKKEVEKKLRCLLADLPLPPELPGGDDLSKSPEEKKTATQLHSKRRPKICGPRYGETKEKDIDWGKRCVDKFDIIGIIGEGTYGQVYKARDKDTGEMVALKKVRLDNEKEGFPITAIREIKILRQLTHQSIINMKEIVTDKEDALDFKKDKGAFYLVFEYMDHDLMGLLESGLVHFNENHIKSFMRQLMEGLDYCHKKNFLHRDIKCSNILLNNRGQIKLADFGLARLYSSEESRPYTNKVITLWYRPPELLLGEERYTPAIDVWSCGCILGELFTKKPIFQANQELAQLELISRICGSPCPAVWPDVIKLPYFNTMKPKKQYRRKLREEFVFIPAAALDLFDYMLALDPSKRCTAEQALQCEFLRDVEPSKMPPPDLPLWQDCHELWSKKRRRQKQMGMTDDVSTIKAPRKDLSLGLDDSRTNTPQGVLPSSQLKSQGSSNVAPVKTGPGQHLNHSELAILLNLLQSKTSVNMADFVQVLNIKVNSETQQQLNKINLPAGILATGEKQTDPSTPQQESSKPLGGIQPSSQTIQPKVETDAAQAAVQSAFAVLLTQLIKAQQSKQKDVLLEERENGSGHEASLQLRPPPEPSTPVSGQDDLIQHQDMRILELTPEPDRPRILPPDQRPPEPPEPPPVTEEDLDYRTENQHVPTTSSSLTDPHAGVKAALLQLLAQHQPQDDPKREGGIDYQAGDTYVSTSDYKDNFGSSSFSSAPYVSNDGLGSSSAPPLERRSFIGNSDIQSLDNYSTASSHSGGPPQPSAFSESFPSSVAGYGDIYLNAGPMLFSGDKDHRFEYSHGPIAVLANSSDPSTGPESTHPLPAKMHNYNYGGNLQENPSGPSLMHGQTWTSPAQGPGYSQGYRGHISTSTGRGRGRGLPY
STK32A (human), sequence (Q8WU08 whole entry, looked up): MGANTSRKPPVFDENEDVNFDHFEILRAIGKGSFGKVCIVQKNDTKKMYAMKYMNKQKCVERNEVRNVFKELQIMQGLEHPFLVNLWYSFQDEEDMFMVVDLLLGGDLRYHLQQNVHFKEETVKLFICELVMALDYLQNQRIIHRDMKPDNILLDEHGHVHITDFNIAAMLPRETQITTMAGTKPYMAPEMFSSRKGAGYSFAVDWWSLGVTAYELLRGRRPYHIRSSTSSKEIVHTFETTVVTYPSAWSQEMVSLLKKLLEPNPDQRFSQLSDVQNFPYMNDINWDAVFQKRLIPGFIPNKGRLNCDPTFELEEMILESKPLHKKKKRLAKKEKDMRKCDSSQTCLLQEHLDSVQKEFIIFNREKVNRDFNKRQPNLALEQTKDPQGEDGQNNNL

SMILES | kinase still bound, per cent of control (TRPM6 (human)) [%] | kinase still bound, per cent of control (PLK2 (human)) [%] | kinase still bound, per cent of control (DSTYK (human)) [%] | kinase still bound, per cent of control (PIK3C2G (human)) [%] | kinase still bound, per cent of control (PIP5K1C (human)) [%] | kinase still bound, per cent of control (GRK4 (human)) [%] | kinase still bound, per cent of control (TAOK2 (human)) [%] | kinase still bound, per cent of control (PIP4K2C (human)) [%] | kinase still bound, per cent of control (MAP2K5 (human)) [%] | kinase still bound, per cent of control (CDK13 (human)) [%] | kinase still bound, per cent of control (NIM1 (human)) [%] | kinase still bound, per cent of control (STK39 (human)) [%] | kinase still bound, per cent of control (STK38 (human)) [%] | kinase still bound, per cent of control (MET (human)) [%] | kinase still bound, per cent of control (PRKCI (human)) [%] | kinase still bound, per cent of control (PRPF4B (human)) [%] | kinase still bound, per cent of control (CDK4 CCND3 (human)) [%] | kinase still bound, per cent of control (VRK2 (human)) [%] | kinase still bound, per cent of control (EGFR (human)) [%] | kinase still bound, per cent of control (HUNK (human)) [%] | other results
O=C1Nc2ccc(I)cc2/C1=C/c1cc(Br)c(O)c(Br)c1 | 100 | 71 | 66 | 44 | 19 | 21 | 71 | 100 | 56 | 100 | 100 | 100 | 64 | 100 | 100 | 50 | 99 | 82 | 56 | 2.8 | kinase still bound, per cent of control [1]: 84%; kinase still bound, per cent of control [2]: 55%; kinase still bound, per cent of control (DDR1 (human)): 85%; kinase still bound, per cent of control (MAP3K6 (human)): 100%; kinase still bound, per cent of control (STK32A (human)): 91%; kinase still bound, per cent of control (CDK4 CCND1 (human)): 65%; kinase still bound, per cent of control (ICK (human)): 88%; kinase still bound, per cent of control (DYRK1A (human)): 26%; kinase still bound, per cent of control (IRAK1 (human)): 100%; kinase still bound, per cent of control [3]: 100%; kinase still bound, per cent of control (CDKL3 (human)): 88%; kinase still bound, per cent of control (BTK (human)): 99%; kinase still bound, per cent of control (PIK3CA (human)): 85%; kinase still bound, per cent of control (CPK1 (P.falciparum)): 24%; kinase still bound, per cent of control (PKN3 (M.tuberculosis)): 64%; kinase still bound, per cent of control (IRAK4 (human)): 90%; kinase still bound, per cent of control (NEK4 (human)): 93%; kinase still bound, per cent of control (MAK (human)): 100%; kinase still bound, per cent of control (SNRK (human)): 99%; kinase still bound, per cent of control (GRK1 (human)): 92%
O=C(O)c1ccc(Nc2ncc3c(n2)-c2ccc(Cl)cc2C(c2c(F)cccc2F)=NC3)cc1 | 100 | 29 | 100 | 16 | 49 | 100 | 94 | 26 | 80 | 100 | 100 | 100 | 100 | 49 | 100 | 100 | 100 | 100 | 43 | 59 | kinase still bound, per cent of control (MAP3K6 (human)): 99%; kinase still bound, per cent of control (STK32A (human)): 54%; kinase still bound, per cent of control (CDK4 CCND1 (human)): 98%; kinase still bound, per cent of control (ICK (human)): 86%; kinase still bound, per cent of control (DYRK1A (human)): 52%; kinase still bound, per cent of control (IRAK1 (human)): 93%; kinase still bound, per cent of control [3]: 67%; kinase still bound, per cent of control (CDKL3 (human)): 100%; kinase still bound, per cent of control (BTK (human)): 28%; kinase still bound, per cent of control (PIK3CA (human)): 100%; kinase still bound, per cent of control (CPK1 (P.falciparum)): 63%; kinase still bound, per cent of control (PKN3 (M.tuberculosis)): 96%; kinase still bound, per cent of control (IRAK4 (human)): 100%; kinase still bound, per cent of control (NEK4 (human)): 66%; kinase still bound, per cent of control (MAK (human)): 78%; kinase still bound, per cent of control (SNRK (human)): 74%; kinase still bound, per cent of control (GRK1 (human)): 100%
CCCS(=O)(=O)Nc1ccc(F)c(C(=O)c2c[nH]c3ncc(-c4ccc(Cl)cc4)cc23)c1F | 100 | 97 | 22 | 62 | 44 | 100 | 53 | 100 | 0.15 | 100 | 100 | 100 | 100 | 53 | 100 | 92 | 82 | 100 | 70 | 9.1 | kinase still bound, per cent of control [1]: 50%; kinase still bound, per cent of control (MAP3K6 (human)): 100%; kinase still bound, per cent of control (STK32A (human)): 100%; kinase still bound, per cent of control (CDK4 CCND1 (human)): 52%; kinase still bound, per cent of control (ICK (human)): 73%; kinase still bound, per cent of control (DYRK1A (human)): 100%; kinase still bound, per cent of control (IRAK1 (human)): 99%; kinase still bound, per cent of control [3]: 100%; kinase still bound, per cent of control (CDKL3 (human)): 100%; kinase still bound, per cent of control (BTK (human)): 93%; kinase still bound, per cent of control (PIK3CA (human)): 94%; kinase still bound, per cent of control (CPK1 (P.falciparum)): 0%; kinase still bound, per cent of control (PKN3 (M.tuberculosis)): 78%; kinase still bound, per cent of control (IRAK4 (human)): 86%; kinase still bound, per cent of control (NEK4 (human)): 95%; kinase still bound, per cent of control (MAK (human)): 100%; kinase still bound, per cent of control (SNRK (human)): 100%; kinase still bound, per cent of control (GRK1 (human)): 100%

From the kinase profiling compilation of Christmann-Franck et al. (2016)
